Data: patent publication US5464754A, “Assay and substrate for arachidonoyl-specific phospholipase A2” (The Regents of the University of California, priority 1993, dated 1995)

Legend:
[1] = test system: cPLA enzyme; test: Effect of solvent and diluent components on cPLA enzyme activity; type: biochemical, human
Procedure: The substrate diluent generally comprises any suitable assay buffer system, such as HEPES, Tris-HCL, Tris-maleate, glycine, or the like. […] A suitable diluent comprises about 25% -50% glycerol, and preferably about 30% glycerol.
The thiosubstrate diluent also comprises an amount of detergent sufficient to solubilize! the substrate. One suitable detergent is Triton-X 100. Triton-X 100 is preferably used at concentrations of about 1-5 mM with about 1-3 mM thiosubstrate.
The Ca^2+ can be provided by the addition of CaCl2 to the diluent, preferably at concentrations greater than 1 mM, and more preferably at a concentration of about 10 mM.
The effectiveness of a phospholipase A2 enzyme inhibitor can be measured by adding the inhibitor to the substrate solution prior to the incubation with enzyme. […] Therefore, approximately 10 μl inhibitor dissolved in DMSO can be added to 200 μl substrate solution prior to the addition of enzyme to test the effectiveness of the inhibitor against cPLA. […] Thus, appropriate blanks should be run under each condition tested.

[2] = test system: cPLA enzyme; test: Sensitivity of cPLA enzyme to thiol-sensitive reagents; type: biochemical, human; details: in the presence of DTNB (Ellman's reagent)
Procedure: The sPLA enzymes are very stable, containing 7 disulfide bonds. […] In contrast, cPLA is an intracellular enzyme and assays and purifications are often run in the presence of reduced thiols, such as 2-mercaptoethanol or dithiothreitol (Kramer et al., supra; Clark, J. D., et al., supra).
After an incubation period, the enzyme/substrate reaction is quenched by the addition of a quenching reagent and a thiol-sensitive reagent. As used herein, the term "quenching reagent" refers to any compound capable of stopping the enzymatic activity of phospholipase A2 enzyme. Suitable quenching reagents are Ca^2+ chelators such as ethylene glycol bis(oxyethylenenitrilo) tetraacetic acid (EGTA) and the like, or high concentrations of a detergent such as 30 mM Triton X-100. The thiol-sensitive reagent can be any reagent capable of releasing a chromophore such as DTNB or 4,4'-dithiodipyridine (DTP). DTNB is a preferred thiol-sensitive reagent because its chromophore can be detected at […], which is available to most microtiterplate readers.

[3] = test system: cPLA2 (purified, recombinant human); test: Microtiterplate assay for cPLA2 using thioPC substrate; type: biochemical
Procedure: The enzyme activity of CPLA2 was assayed using a ThioPC/Triton X-100 substrate solution. An appropriate volume of ThioPC in chloroform solution was evaporated to dryness under a stream of N2. Triton X-100 (8 mM) in 2× assay buffer (160 mM HEPES, pH 7.4, 300 mM NaCl, 20 mM CaC2, 2 mg/ml BSA) was added to the dried lipid in one-half the desired final volume to give a 2-fold concentrated substrate solution. This solution was bath sonicated 1 min to loosen dried ThioPC from the walls of the vial and then probe sonicated On ice, 20 sec on, 20 sec off for 3 min. The solution was then warmed to 40° C. and warm glycerol equivalent to 30% of the final volume was added. The solution was then brought to the desired final volume with deionized H2 O. The final assay contained 2 mM ThioPC, 4 mM Triton! X-100 and 30% glycerol in 80 mM HEPES, pH 7.4, 150 mM NaCl, 10 mM CaCl2 and 1 mg/ml BSA.
The substrate was then aliquotted, in 200 μl increments, into the wells of a 96-well plate and equilibrated for 5 min at 37° C. To initiate the reaction, 500 ng cPLA2 (purified, recombinant human), in a 5 μl volume of 1× assay buffer, was added to the wells, the plate was shaken 20 seconds on high to mix, and then incubated for 60 min at 37° C. […]
After 60 min, 10 μl of a 25 mM DTNB/475 mM EGTA mixture was added to all substrate containing wells to quench the reaction and initiate the color development. […] After adding the DTNB/EGTA, the plate was once again shaken 20 sec on high and allowed to incubate for an additional 3 min to give the DTNB chromophore time to fully develop prior to reading the plate. The absorbance was measured using a dual wavelength option (405 nm -620 nm) to correct for light scattering. […] The average absorbance of the blanks was subtracted from that of the enzyme containing wells to correct for the absorbance due to the substrate, DTNB, and EGTA. The difference in absorbance was used to calculate enzyme activity. […] Specific activity was calculated using ε405 for DTNB of 12,800 M^- cm^-1 (Yu et al supra) and a path length of 0.47 cm for 215 μl final total volume. […]

## C[S+](C)[O-] [DMSO]
[1]; DMSO:enzyme/substrate ratio of about 1:20
  effect of DMSO on enzyme activity: unaffected

## O=C(O)c1cc(SSc2ccc([N+](=O)[O-])c(C(=O)O)c2)ccc1[N+](=O)[O-] [DTNB, 5,5'-dithiobis(2-nitrobenzoic acid)]
[2]
  enzymatic activity of cPLA in the presence of thiol-sensitive reagent: enzymatic activity was lost

## OCC(O)CO [glycerol]
[1]; about 70% glycerol, diluent too viscous
  effect of glycerol on enzyme activity: enzyme activity is increased
[1]; glycerol as component of substrate diluent
  effect of glycerol on enzyme activity: Enzyme activity increases

## CCCCC/C=C\C/C=C\C/C=C\C/C=C\CCCC(=O)S[C@H](COCCCCCCCCCCCCCCCC)COP(=O)([O-])OCC[N+](C)(C)C [thioPC, 1-hexadecyl-2-arachidonoylthio-2-deoxy-sn-glycero-3-phosphorylcholine]
[3]; 2 mM ThioPC, 4 mM Triton X-100, 30% glycerol, pH 7.4, 37° C., FIG. 3
  enzyme activity as a function of time: more linear phase: 5 to 60 min
[3]; 2 mM ThioPC, 4 mM Triton X-100, 30% glycerol, pH 7.4, 37° C., FIG. 3, short burst of activity
  enzyme activity as a function of time: burst phase: 5 min

## Triton X-100
[1]; Triton X-100 at about 1-5 mM with about 1-3 mM thiosubstrate
  effect of Triton X-100 on stability of cPLA activity: more stable

B1: cPLA: 85 kDa arachidonic acid specific enzyme; purified, recombinant human (protein, UniProt P47712 1-749, looked up)
Cytosolic phospholipase A2: MSFIDPYQHIIVEHQYSHKFTVVVLRATKVTKGAFGDMLDTPDPYVELFISTTPDSRKRTRHFNNDINPVWNETFEFILDPNQENVLEITLMDANYVMDETLGTATFTVSSMKVGEKKEVPFIFNQVTEMVLEMSLEVCSCPDLRFSMALCDQEKTFRQQRKEHIRESMKKLLGPKNSEGLHSARDVPVVAILGSGGGFRAMVGFSGVMKALYESGILDCATYVAGLSGSTWYMSTLYSHPDFPEKGPEEINEELMKNVSHNPLLLLTPQKVKRYVESLWKKKSSGQPVTFTDIFGMLIGETLIHNRMNTTLSSLKEKVNTAQCPLPLFTCLHVKPDVSELMFADWVEFSPYEIGMAKYGTFMAPDLFGSKFFMGTVVKKYEENPLHFLMGVWGSAFSILFNRVLGVSGSQSRGSTMEEELENITTKHIVSNDSSDSDDESHEPKGTENEDAGSDYQSDNQASWIHRMIMALVSDSALFNTREGRAGKVHNFMLGLNLNTSYPLSPLSDFATQDSFDDDELDAAVADPDEFERIYEPLDVKSKKIHVVDSGLTFNLPYPLILRPQRGVDLIISFDFSARPSDSSPPFKELLLAEKWAKMNKLPFPKIDPYVFDREGLKECYVFKPKNPDMEKDCPTIIHFVLANINFRKYRAPGVPRETEEEKEIADFDIFDDPESPFSTFNFQYPNQAFKRLHDLMHFNTLNNIDVIKEAMVESIEYRRQNPSRCSVSLSNVEARRFFNKEFLSKPKA
[3]; FIG. 2, thiosubstrate assay, listed as cytosolic phospholipase A2
  range of enzyme amount with linear activity: 0.05 to 1.0 µg
